Numbers after ± are expanded uncertainties.
Experiment: xn = mol fraction of the nth substance listed
Settings: 101 kPa, Liquid, Vibrating tube method

CCCC[N+]1(C)CCCC1.O=S(=O)([N-]S(=O)(=O)C(F)(F)F)C(F)(F)F + CNC=O
mass density [kg/m3]
Settings | 293.15 K | 298.15 K | 303.15 K | 308.15 K | 313.15 K | 318.15 K | 323.15 K
x1 = 0.0246 | 1055.01 ± 0.28 | 1050.43 ± 0.28 | 1045.86 ± 0.28 | 1041.32 ± 0.27 | 1036.71 ± 0.27 | 1032 ± 0.27 | 1027.24 ± 0.26
x1 = 0.0444 | 1087.36 ± 0.31 | 1082.72 ± 0.3 | 1078.08 ± 0.3 | 1073.48 ± 0.3 | 1068.79 ± 0.29 | 1064.04 ± 0.29 | 1059.25 ± 0.3
x1 = 0.0743 | 1124.18 ± 0.34 | 1119.6 ± 0.33 | 1114.93 ± 0.33 | 1110.11 ± 0.33 | 1105.37 ± 0.32 | 1100.74 ± 0.32 | 1095.89 ± 0.33
x1 = 0.1571 | 1192.03 ± 0.4 | 1187.22 ± 0.4 | 1182.56 ± 0.4 | 1177.83 ± 0.39 | 1173.12 ± 0.39 | 1168.24 ± 0.39 | 1163.34 ± 0.39
x1 = 0.2195 | 1227.49 ± 0.43 | 1222.75 ± 0.43 | 1218 ± 0.43 | 1213.28 ± 0.42 | 1208.51 ± 0.42 | 1203.7 ± 0.42 | 1198.78 ± 0.41
x1 = 0.2768 | 1253.4 ± 0.45 | 1248.66 ± 0.45 | 1243.85 ± 0.45 | 1239.09 ± 0.44 | 1234.35 ± 0.44 | 1229.57 ± 0.44 | 1224.76 ± 0.43
x1 = 0.3721 | 1288.07 ± 0.49 | 1283.27 ± 0.48 | 1278.56 ± 0.48 | 1273.79 ± 0.48 | 1269.04 ± 0.47 | 1264.27 ± 0.47 | 1259.52 ± 0.47
x1 = 0.4755 | 1318.98 ± 0.51 | 1314.25 ± 0.51 | 1309.5 ± 0.51 | 1304.78 ± 0.5 | 1300.03 ± 0.5 | 1295.32 ± 0.5 | 1290.63 ± 0.49
x1 = 0.588 | 1344.35 ± 0.53 | 1339.65 ± 0.53 | 1334.96 ± 0.52 | 1330.34 ± 0.52 | 1325.69 ± 0.52 | 1320.95 ± 0.51 | 1316.2 ± 0.51
x1 = 0.631 | 1352.66 ± 0.54 | 1347.99 ± 0.53 | 1343.33 ± 0.53 | 1338.74 ± 0.52 | 1334.09 ± 0.52 | 1329.42 ± 0.52 | 1324.65 ± 0.51
x1 = 0.7045 | 1364.77 ± 0.54 | 1360 ± 0.54 | 1355.4 ± 0.54 | 1350.82 ± 0.53 | 1346.19 ± 0.53 | 1341.54 ± 0.52 | 1336.77 ± 0.52
x1 = 0.7807 | 1375.58 ± 0.55 | 1370.92 ± 0.55 | 1366.37 ± 0.55 | 1361.76 ± 0.54 | 1357.23 ± 0.54 | 1352.53 ± 0.53 | 1347.89 ± 0.53
x1 = 0.9067 | 1390.15 ± 0.57 | 1385.5 ± 0.56 | 1380.94 ± 0.56 | 1376.4 ± 0.55 | 1371.81 ± 0.55 | 1367.24 ± 0.55 | 1362.53 ± 0.54

Source: the NIST ThermoML archive (doi:10.1021/je300941v)
